Measurements published in patent publication US20240317749A1, “THERAPEUTIC COMPOUNDS” (priority 2021, published 2024).
Values after ≈ are worked out from the molar mass of the structure shown.

Experiments:
[1] = tested on: N. gonorrhoeae ATCC 49226; assay: MIC assay for N. gonorrhoeae, broth microdilution in Todd-Hewitt (TH) broth; format: cell-based; settings: Neisseria gonorrhoeae, ATCC49226; Antibacterial Activity against N. gonorrhoeae ATCC 49226 in TH
Source text: MIC assays for N. gonorrhoeae were done using the ATCC 49226 strain. The procedure guidelines recommended by the Clinical and Laboratory Standards Institute (CLSI) for the broth microdilution MIC assay were modified by substituting […]. Also, the recommended bacterial inoculum was modified to meet the high inoculum demands needed for N. gonorrhoeae growth. A 96-well plate containing TH broth with 2-fold serial dilution of compounds was inoculated with log-phase bacterial at 2.5×10^7 CFU/mL. The final volume in each well was 200 μL. Each compound was tested in duplicate. The microtiter plates were incubated in an […] environment for 24 hours at 37° C. using the candle jar technique. Then the bacterial growth was tested by reading the plate with a SpectraMax iD5 plate reader (Molecular Devices, Inc.) at 600 nm. The MIC was defined as the lowest compound concentration that inhibited bacteria growth.

P. aeruginosa ATCC 27853 = assay: MIC assay, CLSI broth microdilution in CAMH broth; format: cell-based, Pseudomonas aeruginosa; settings: P. aeruginosa ATCC 278538
Description: (§1) MIC assays for various Gram-negative and Gram-positive strains were conducted in accordance with the CLSI guidelines for broth microdilution. A 96-well plate containing CAMH broth with 2-fold serial dilution of compounds was inoculated with log-phase bacterial at 5×10^5 CFU/mL. The final volume in each well was 100 μL. Each compound was tested in duplicate. The microtiter plates were incubated in an aerobic environment for 18 hours at 37° C. Then the bacterial growth was tested by reading the plate with a SpectraMax iD5 plate reader (Molecular Devices, Inc.) at 600 nm. The MIC was defined as the lowest compound concentration that inhibited bacteria growth.
(§2) The following Gram-negative and Gram-positive strains were used in the aerobic MIC procedure: • P. aeruginosa ATCC 27853 • A. baumannii ATCC 19606 • E. coli ATCC 25922 • E. coli W4573 • E. coli N43 • K. pneumoniae ATCC 10031 • K. pneumoniae ATCC 13883 • S. sonnei ATCC 29930 • P. mirabilis ATCC 29906 • Methicillin-susceptible S. aureus (MSSA) ATCC 19636 • Methicillin-resistant S. aureus (MRSA) ATCC 33951

E. coli ATCC 25922 = assay: MIC assay, CLSI broth microdilution in CAMH broth; format: cell-based, Escherichia coli
Description: as §1, §2

E. coli N43 = assay: MIC assay, CLSI broth microdilution in CAMH broth; format: cell-based, Escherichia coli
Description: as §1, §2

E. coli W4573 = assay: MIC assay, CLSI broth microdilution in CAMH broth; format: cell-based, Escherichia coli
Description: as §1, §2

K. pneumoniae ATCC 10031 = assay: MIC assay, CLSI broth microdilution in CAMH broth; format: cell-based, Klebsiella pneumoniae; settings: K. pneumonias ATCC 10031
Description: as §1, §2

K. pneumoniae ATCC 13883 = assay: MIC assay, CLSI broth microdilution in CAMH broth; format: cell-based, Klebsiella pneumoniae; settings: K. pneumonias ATCC 13883
Description: as §1, §2

P. mirabilis ATCC 29906 = assay: MIC assay, CLSI broth microdilution in CAMH broth; format: cell-based, Proteus mirabilis
Description: as §1, §2

[2] = tested on: Methicillin-susceptible S. aureus (MSSA) ATCC 19636; assay: MIC assay, CLSI broth microdilution in CAMH broth; format: cell-based, Staphylococcus aureus
Description: as §1, §2

[3] = tested on: Methicillin-resistant S. aureus (MRSA) ATCC 33591; assay: MIC assay, CLSI broth microdilution in CAMH broth; format: cell-based, Staphylococcus aureus
Description: as §1, with “growth. […]” for “growth.”

Row | Structure (SMILES) | MIC [1] [µg/mL] | Intrinsic MIC in CAMH (P. aeruginosa ATCC 27853) | Intrinsic MIC in CAMH (E. coli ATCC 25922) | Intrinsic MIC in CAMH (E. coli N43) | Intrinsic MIC in CAMH (E. coli W4573) | Intrinsic MIC in CAMH (K. pneumoniae ATCC 10031) | Intrinsic MIC in CAMH (K. pneumoniae ATCC 13883) | Intrinsic MIC in CAMH (P. mirabilis ATCC 29906) | Intrinsic MIC in CAMH [2] | Intrinsic MIC in CAMH [3]
1 | Nc1nc(N)c2ccc3c(ccn3Cc3ccc(Br)cc3)c2n1 [Example 2, 7-(4-bromobenzyl)-7H-pyrrolo[2,3-h]quinazoline-2,4-diamine] | 2 (≈ 5.43 µM) | >128¤ | 2¤ | ≤0.25¤ | 1¤ | ≤0.25¤ | 4¤ | 4¤ | ≤0.25¤ | ≤0.25¤
2 | Nc1nc(N)c2ccc3c(ccn3Cc3cccc(Br)c3)c2n1 [Example 3, 7-(3-bromobenzyl)-7H-pyrrolo[2,3-h]quinazoline-2,4-diamine] | 0.5 (≈ 1.36 µM) | >64¤ | 32¤ | 1¤ | >64¤ | 4¤ | >64¤ | >64¤ | 2¤ | 2¤
3 | Nc1nc(N)c2ccc3c(ccn3Cc3ccc(C(F)(F)F)cc3)c2n1 [Example 7, 7-(4-(trifluoromethyl)benzyl)-7H-pyrrolo[2,3-h]quinazoline-2,4-diamine] | 2 (≈ 5.6 µM) | >64¤ | 2¤ | ≤0.015¤ | 2¤ | ≤0.125¤ | 8¤ | >64¤ | ≤0.25¤ | ≤0.25¤
4 | Nc1nc(N)c2ccc3c(ccn3Cc3ccc(C(=O)c4ccccc4)cc3)c2n1 [Example 16, (4-((2,4-diamino-7H-pyrrolo[2,3-h]quinazolin-7-yl)methyl)phenyl)(phenyl)methanone] | 4 (≈ 10.2 µM) | >64¤ | 4¤ | ≤0.015¤ | 2¤ | ≤0.125¤ | >64¤ | >64¤ | ≤0.25¤ | ≤0.25¤
5 | CC[C@H]1OC(=O)[C@H](C)[C@@H](O[C@H]2C[C@@](C)(OC)[C@@H](O)[C@H](C)O2)[C@H](C)[C@@H](O[C@@H]2O[C@H](C)C[C@H](N(C)C)[C@H]2O)[C@](C)(O)C[C@@H](C)CN(C)[C@H](C)[C@@H](O)[C@]1(C)O [AZM, azithromycin, reference compound] | – | 64¤ | 8¤ | 1¤ | 4¤ | 2¤ | 32¤ | 64¤ | 1¤ | 1¤
6 | N#Cc1cccc(Cn2ccc3c4nc(N)nc(N)c4ccc32)c1 [Example 6, 3-((2,4-diamino-7H-pyrrolo[2,3-h]quinazolin-7-yl)methyl)benzonitrile] | 4 (≈ 12.7 µM) | >64¤ | 4¤ | ≤0.015¤ | 4¤ | ≤0.125¤ | 16¤ | >64¤ | 0.5¤ | 0.5¤
7 | Nc1nc(N)c2ccc3c(ccn3C3C=CCCC3)c2n1 (centres unmarked) [Example 26, 7-(cyclohex-2-en-1-yl)-7H-pyrrolo[2,3-h]quinazoline-2,4-diamine] | 4 (≈ 14.3 µM) | >128¤ | 16¤ | <0.125¤ | 16¤ | 2¤ | 64¤ | >64¤ | 1¤ | 1¤
8 | Nc1nc(N)c2ccc3c(ccn3Cc3ccc4ccccc4c3)c2n1 [Example 21, 7-(naphthalen-2-ylmethyl)-7H-pyrrolo[2,3-h]quinazoline-2,4-diamine] | 2 (≈ 5.89 µM) | >128¤ | >64¤ | 8¤ | >64¤ | 8¤ | >64¤ | >64¤ | 4¤ | 4¤
9 | Cc1cc2c3nc(N)nc(N)c3ccc2n1Cc1ccc(-c2ccccc2C#N)cc1 [Example 31, 4′-((2,4-diamino-8-methyl-7H-pyrrolo[2,3-h]quinazolin-7-yl)methyl)-[1,1′-biphenyl]-2-carbonitrile] | 1 (≈ 2.47 µM) | >128¤ | >64¤ | <0.125¤ | >64¤ | 0.5¤ | >64¤ | >64¤ | 0.25¤ | 0.5¤
10 | COc1cc(Cc2cnc(N)nc2N)cc(OC)c1OC [TMP, reference compound] | – | >64¤ | 0.5¤ | <0.125¤ | 0.5¤ | 0.25¤ | 2¤ | 1¤ | 0.5¤ | 0.5¤
